{"source": "patent US11980627B2", "about": "“Triple pharmaceutical composition for proteinaceous infection” (priority 2019, dated 2024)", "origin": "cited, not measured here", "key": {"[1]": {"system": "AD", "conditions": "in vivo"}, "[2]": {"system": "patients with AD", "conditions": "human, in vivo"}, "[3]": {"system": "AD patients", "conditions": "twelve months' treatment, alone or in combination"}, "[4]": {"system": "soluble amyloid protein", "sequence (P05067 672-711 limits assumed)": "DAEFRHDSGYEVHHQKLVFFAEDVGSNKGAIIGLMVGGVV", "conditions": "intravenous"}}}
{"compound": "CC(=O)Nc1ccc(O)cc1", "note": "[Acetaminophen]", "values": [{"measurement": "effects on AD", "setting": "[1]", "value": "not found to have beneficial effects"}]}
{"compound": "COc1ccc2cc([C@H](C)C(=O)O)ccc2c1", "note": "[Naproxen]", "values": [{"measurement": "cognitive function in patients with AD", "setting": "[2]", "value": "did not improve"}]}
{"compound": "CC(=O)Oc1ccccc1C(=O)O", "note": "[aspirin]", "values": [{"measurement": "effects on AD", "setting": "[1]", "value": "not found to have beneficial effects"}]}
{"compound": "CO[C@H]1/C=C/O[C@@]2(C)Oc3c(C)c(O)c4c(O)c(c(/C=N/N5CCN(C)CC5)c(O)c4c3C2=O)NC(=O)/C(C)=C\\C=C\\[C@H](C)[C@H](O)[C@@H](C)[C@@H](O)[C@@H](C)[C@H](OC(C)=O)[C@@H]1C", "note": "[rifampin]", "values": [{"measurement": "effects on cognition or function in AD", "setting": "[3]", "value": "no beneficial effects"}]}
{"compound": "Solanezumab: intravenous amyloid immunotherapy; humanized monoclonal antibody to soluble amyloid protein", "values": [{"measurement": "outcome of amyloid immunotherapy in AD", "setting": "[4]", "value": "failure"}]}
